Reference: patent US4699928A, “Fluoroallylamine derivatives” (Merrell Dow Pharmaceuticals Inc., priority 1986, dated 1987)

Experiments:
[1] = tested on: MAO-B versus MAO-A; experiment: Selectivity of inhibition of MAO-B versus MAO-A in vitro (14C phenethylamine / 14C 5-hydroxytryptamine); type: biochemical; conditions: rat, brain mitochondria
Procedure: Mitochondria are prepared from rat brain by homogenation in phosphate buffer (0.1 M, pH 7.2) followed by differential centrifugation. The mitochondria are suspended in the same buffer, the test compound is added at the desired concentration, and the system is incubated. At different time intervals, aliquots are taken and MAO activity is measured using ^14 C p-tyramine (a mixed substrate) as the substrate (See A. Christmas et al., supra).
(C) The selectivity of a compound of Formula I with respect to inhibition of MAO-A and MAO-B can be determined by repeating the procedure of Part B and measuring the MAO activity using ^14 C 5-hydroxytryptamine (a preferred substrate for MAO-A) and ^14 C phenethylamine (a preferred substrate for MAO-B) as the substrate.

[2] = tested on: MAO; experiment: Inhibition of MAO in vitro, partially purified rat brain mitochondria, 14C p-tyramine substrate; type: biochemical; conditions: tested as hydrochloride salt
From the text: Inhibition of MAO--In vitro testing
(A) The ability of a compound of Formula I to inhibit MAO can be determined in vitro by the method of A. Christmas et al., Br. J. Pharmacol., 45, 490 (1972) in partially purified mitochondria from rat brain using ^14 C p-tyramine as the substrate. The MAO inhibitory activity of a compound is expressed as the "IC50 " value, which is the molar concentration required to produce 50% inhibition of the enzyme.

[3] = tested on: MAO-A and MAO-B; conditions: cited from earlier work
[4] = tested on: depression; conditions: in vivo; cited from earlier work
[5] = tested on: MAO-B; conditions: cited from earlier work
[6] = tested on: heart rate response to p-tyramine; experiment: Cheese effect: potentiation of response to intravenous p-tyramine, pithed rats; type: in vivo, male Sprague-Dawley rats; conditions: p-tyramine i.v.
Procedure: (§1) The following test procedures can be employed to assess the potential of a compound of Formula I for producing the "cheese effect": […]
(§2) Eighteen hours later the animals are anaesthetized with pentobarbitone (60 mg/kg i.p.), in some instances pithed, and in all cases set up for recording heart rate and blood pressure by standard techniques.

[7] = low dosages where preferential inhibition of MAO-B occurs; cited from earlier work
[8] = tested on: heart rate response to p-tyramine; experiment: Cheese effect: potentiation of response to intraduodenal p-tyramine, anaesthetized rats; type: in vivo, male Sprague-Dawley rats; conditions: p-tyramine i.d.
Procedure: as §1, §2

[9] = tested on: MAO-A; conditions: cited from earlier work

Structure (SMILES): CNC/C(=C/F)COc1ccc(Cl)cc1Cl [N-methyl (Z)-2-(2',4'-dichlorophenoxy)methyl-3-fluoroallylamine]
- Ratio B:A (inhibitory activity against MAO-B versus MAO-A) [1]: 100

Structure (SMILES): C#CCN(C)Cc1ccccc1 [pargyline]
- IC50 [2]: 2000 nM
- dose-dependence of selectivity ([3]; lower versus higher dosages): selective inhibitors at lower dosages, but are not selective inhibitors at higher dosages
- clinical antidepressant effect [4]: clinically effective antidepressant agents
- preferential inhibition of MAO-B [5]: MAO-B is preferentially inhibited

Structure (SMILES): Cc1cc(C(=O)NNCc2ccccc2)no1 [isocarboxazid]
- preference in action upon MAO [3]: not preferential

Structure (SMILES): N[C@@H]1C[C@H]1c1ccccc1 (relative stereo) [tranylcypromine]
- preference in action upon MAO [3]: not preferential

Structure (SMILES): NC/C(=C/F)CSc1ccccc1 [(Z)-2-thiophenoxymethyl-3-fluoroallylamine]
- IC50 [2]: 1000 nM
- Ratio B:A (inhibitory activity against MAO-B versus MAO-A) [1]: 1,000

Structure (SMILES): NC/C(=C/F)CSc1ccc(F)cc1 [(Z)-2-(4'-fluorothiophenoxy) methyl-3-fluoroallylamine]
- Ratio B:A (inhibitory activity against MAO-B versus MAO-A) [1]: 100

Structure (SMILES): NC/C(=C\F)CSc1ccccc1 [(E)-2-thiophenoxymethyl-3-fluoroallylamine]
- Ratio B:A (inhibitory activity against MAO-B versus MAO-A) [1]: 100

Structure (SMILES): NC/C(=C/F)COc1ccccc1 [(Z)-2-phenoxymethyl-3-fluoroallylamine]
- IC50 [2]: 1000 nM

Structure (SMILES): NNCCc1ccccc1 [phenelzine]
- preference in action upon MAO [3]: not preferential

Structure (SMILES): C#CCN(C)[C@H](C)Cc1ccccc1 [L-deprenyl, reference compound]
- Potentiation of heart rate response to p-tyramine ([6]; 0.1 mg/kg): 1.3 fold
- Potentiation of heart rate response to p-tyramine ([6]; 1.0 mg/kg): 2.2 fold
- cheese effect [7]: not observed
- Potentiation of heart rate response to p-tyramine ([8]; 0.1 mg/kg, in words): no effect
- Potentiation of heart rate response to p-tyramine ([8]; 1.0 mg/kg): 2.1 fold
- clinical antidepressant effect [4]: clinically effective antidepressant agents

Structure (SMILES): C#CCN(C)CCCOc1ccc(Cl)cc1Cl [clorgyline, reference compound]
- IC50 [2]: 10 nM
- preferential inhibition of MAO-A [9]: MAO-A is preferentially inhibited
- Potentiation of heart rate response to p-tyramine ([6]; 0.1 mg/kg): 5.2 fold
- Potentiation of heart rate response to p-tyramine ([8]; 0.1 mg/kg): 5.6 fold
- clinical antidepressant effect [4]: clinically effective antidepressant agents
